Data taken from patent US20260327221A1, “INHIBITORS OF CYCLIC GMP-AMP SYNTHASE AND USES THEREOF” (Ventus Therapeutics U.S., Inc., priority 2023, published 2026).
Read-outs that look alike come from different tables or passages of the source.

Target: hcGAS (Homo sapiens, UniProt Q8N884)
Assay: hcGAS LCMS assay (direct measurement of cGAMP production by LC/MS)
Type: biochemical
Method: cGAS catalyzes the cyclization of ATP and GTP to produce cGAMP, which is the activating ligand of STING. Human cGAS (hcGAS) inhibition can thus be quantified by measuring how much cGAMP is formed either indirectly, by monitoring ATP-depletion as in the hcGAS Kinase-Glo assay (as described below), or directly, such as using the hcGAS LCMS assay (as described below).
2. hGAS LCMS Assay Conditions
Compounds were tested for their hcGAS inhibition activity using direct measurement of cGAMP production by LC/MS. Briefly, compounds were incubated with enzyme and substrates for 4 hours (see Table C), before the reaction was stopped with 3 volumes of 70/30 Acetonitrile/H2O mix containing 0.15 uM cGAMP-^13C10^15N5 as internal standard and mixed for 5 mmn. After centrifugation (3700 rpm, […], […]), 100 uL of each reaction was collected and mixed to equal volume of acetonitrile (MeCN). Samples were then analyzed on Qexactive (Column: XBridge BEH Amide Column, 130 Å, 3.5 μm, 3 mm×50 mm. Mobile phase A: 10 mM Ammonium acetate in 95/5 H2O/MeCN (0.5% DMSO), Mobile phase B: MeCN (0.5% DMSO).
The results of the assay, expressed as IC50 values, are reported in Table D with the following designations: A represents an IC50 value <0.005 μM (with A1 representing an IC50 value <0.0005 μM, A2 representing an IC50 value ≥0.0005 μM and <0.001 μM, and A3 representing an IC50 value ≥0.001 μM and <0.005 μM); B represents an IC50 value ≥0.005 μM and <0.02 μM; C represents an IC50 value ≥0.02 μM and <0.06 μM; and D represents an IC50 value ≥0.06 μM.

[1] = 4 h incubation with enzyme and substrates, cGAMP production by LC/MS, class symbols, read-out: hcGAS LCMS IC50

hcGAS, sequence (Q8N884 whole entry): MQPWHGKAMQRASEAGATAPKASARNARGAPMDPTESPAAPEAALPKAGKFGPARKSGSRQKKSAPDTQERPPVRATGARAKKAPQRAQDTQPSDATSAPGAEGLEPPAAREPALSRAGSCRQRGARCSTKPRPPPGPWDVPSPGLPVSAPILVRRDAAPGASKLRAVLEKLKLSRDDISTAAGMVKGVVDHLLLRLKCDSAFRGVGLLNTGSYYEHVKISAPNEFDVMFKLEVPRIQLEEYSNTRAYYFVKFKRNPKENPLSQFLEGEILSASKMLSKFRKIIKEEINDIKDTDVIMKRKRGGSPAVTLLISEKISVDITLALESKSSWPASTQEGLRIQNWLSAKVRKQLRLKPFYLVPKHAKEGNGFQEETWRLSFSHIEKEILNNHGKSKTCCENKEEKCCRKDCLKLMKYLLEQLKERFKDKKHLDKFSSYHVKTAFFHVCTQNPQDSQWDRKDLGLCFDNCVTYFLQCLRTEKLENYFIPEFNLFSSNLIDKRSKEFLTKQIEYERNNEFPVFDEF

For COCCCOc1c(-c2ncccc2OC)cc(C(=O)Nc2nnc(-n3nccc3N)s2)oc1=O [Compound 21, N-(5-(5-amino-1H-pyrazol-1-yl)-1,3,4-thiadiazol-2-yl)-3-(3-methoxypropoxy)-4-(3-methoxypyridin-2-yl)-2-oxo-2H-pyran-6-carboxamide], the IC50 [1] was 1 to 5 nM.

COc1cccc(OC)c1-c1cc(C(=O)Nc2nnc(-n3nccc3N)s2)oc(=O)c1OCCN1CCSCC1 [Compound 44, N-(5-(5-amino-1H-pyrazol-1-yl)-1,3,4-thiadiazol-2-yl)-4-(2,6-dimethoxyphenyl)-2-oxo-3-(2-thiomorpholinoethoxy)-2H-pyran-6-carboxamide] was tested, and the IC50 [1] was less than 0.5 nM, the “cGAS potency relative to Compound 1” value (compared with Compound 1, from activity classes of Table D) was “improved cGAS potency” and the IC50 (hcGAS 0.5 nM, ATP 100 μM, GTP 100 μM, dsDNA 25 nM, pH 7.4, 4 h incubation, read-out: hcGAS inhibition IC50 (activity class, Table D)) was less than 0.5 nM.

COc1cccc(OC)c1-c1cc(C(=O)Nc2nnc(-n3nccc3N)s2)oc(=O)c1OC[C@@H](C)O [Compound 46A, (R)—N-(5-(5-amino-1H-pyrazol-1-yl)-1,3,4-thiadiazol-2-yl)-4-(2,6-dimethoxyphenyl)-3-(2-hydroxypropoxy)-2-oxo-2H-pyran-6-carboxamide] showed an IC50 [1] of 0.5 to 1 nM.

In the case of COc1cccc(OC)c1-c1cc(C(=O)Nc2nnc(-n3nccc3N)s2)oc(=O)c1O[C@@H]1CC[C@@H](O)C1 (relative stereo) [64A*/B*], the IC50 [1] is reported as 0.5 to 1 nM.

Compound COc1cccc(OC)c1-c1cc(C(=O)Nc2nnc(-n3nccc3N)s2)oc(=O)c1OCCN1C[C@@H]2C[C@H]1CS2 [93A*, 3-(2-((1S,4S)-2-thia-5-azabicyclo[2.2.1]heptan-5-yl)ethoxy)-N-(5-(5-amino-1H-pyrazol-1-yl)-1,3,4-thiadiazol-2-yl)-4-(2,6-dimethoxyphenyl)-2-oxo-2H-pyran-6-carboxamide] has an IC50 [1] of 0.5 to 1 nM.

Work on COCCOc1c(-c2ncc(OC)cc2OC)cc(C(=O)Nc2nnc(-n3nccc3N)s2)oc1=O [Compound 60, N-(5-(5-amino-1H-pyrazol-1-yl)-1,3,4-thiadiazol-2-yl)-4-(3,5-dimethoxypyridin-2-yl)-3-(2-methoxyethoxy)-2-oxo-2H-pyran-6-carboxamide] yielded an IC50 [1] of 1 to 5 nM.

For COC[C@H](CO)COc1c(-c2c(OC)cccc2OC)cc(C(=O)Nc2nnc(-n3nccc3N)s2)oc1=O [92B*, (S)-N-(5-(5-amino-1H-pyrazol-1-yl)-1,3,4-thiadiazol-2-yl)-4-(2,6-dimethoxyphenyl)-3-(3-hydroxy-2-(methoxymethyl)propoxy)-2-oxo-2H-pyran-6-carboxamide], the IC50 [1] was 1 to 5 nM.

COC[C@H](C)Oc1c(-c2c(OC)cccc2OC)cc(C(=O)Nc2nnc(-n3nccc3N)s2)oc1=O [Compound 47A, (S)—N-(5-(5-amino-1H-pyrazol-1-yl)-1,3,4-thiadiazol-2-yl)-4-(2,6-dimethoxyphenyl)-3-((1-methoxypropan-2-yl)oxy)-2-oxo-2H-pyran-6-carboxamide] gave an IC50 [1] of 1 to 5 nM.

COc1cccc(OC)c1-c1cc(C(=O)Nc2nnc(-n3nccc3N)s2)oc(=O)c1O[C@H](CO)CN1CCSCC1 [81A*, (S)-N-(5-(5-amino-1H-pyrazol-1-yl)-1,3,4-thiadiazol-2-yl)-4-(2,6-dimethoxyphenyl)-3-((1-hydroxy-3-thiomorpholinopropan-2-yl)oxy)-2-oxo-2H-pyran-6-carboxamide] was tested, and the IC50 [1] was 1 to 5 nM.

COc1cccnc1-c1cc(C(=O)Nc2nnc(-n3nccc3N)s2)oc(=O)c1O[C@H]1CCC[C@H](OC)C1 (single isomer, unassigned) [113B*] was tested, and the IC50 [1] was 0.5 to 1 nM.

COc1cccc(OC)c1-c1cc(C(=O)Nc2nnc(-n3nccc3N)s2)oc(=O)c1OCC(CO)N1CCOCC1 (racemic) [Rac-85, N-(5-(5-amino-1H-pyrazol-1-yl)-1,3,4-thiadiazol-2-yl)-4-(2,6-dimethoxyphenyl)-3-(3-hydroxy-2-morpholinopropoxy)-2-oxo-2H-pyran-6-carboxamide] was tested, and the IC50 [1] was 1 to 5 nM.

In the case of COc1cccc(OC)c1-c1cc(C(=O)Nc2nnc(-n3nccc3N)s2)oc(=O)c1OCC(O)CN1CCSCC1 (stereo not shown) [91A*/91B*], the IC50 [1] is reported as 0.5 to 1 nM.

COc1cccc(OC)c1-c1cc(C(=O)Nc2nnc(-n3nccc3N)s2)oc(=O)c1O[C@@H]1CCC[C@H]1O (single isomer, unassigned) [71B*] showed an IC50 [1] of 0.5 to 1 nM.

For COc1cccc(OC)c1-c1cc(C(=O)Nc2nnc(-n3nccc3N)s2)oc(=O)c1OCCN1CCCCC1 [Compound 69, N-(5-(5-amino-1H-pyrazol-1-yl)-1,3,4-thiadiazol-2-yl)-4-(2,6-dimethoxyphenyl)-2-oxo-3-(2-(piperidin-1-yl)ethoxy)-2H-pyran-6-carboxamide], the IC50 [1] was 5 to 20 nM.

COCCOc1c(-c2c(Cl)cccc2OC)cc(C(=O)Nc2nnc(-n3nccc3N)s2)oc1=O (single isomer, unassigned) [Compound 15B*, (Sa)-N-(5-(5-amino-1H-pyrazol-1-yl)-1,3,4-thiadiazol-2-yl)-4-(2-chloro-6-methoxyphenyl)-3-(2-methoxyethoxy)-2-oxo-2H-pyran-6-carboxamide] showed an IC50 [1] of less than 0.5 nM.

Compound COC[C@@H](CO)Oc1c(-c2c(OC)cccc2OC)cc(C(=O)Nc2nnc(-n3nccc3N)s2)oc1=O [Compound 62B*, (R)—N-(5-(5-amino-1H-pyrazol-1-yl)-1,3,4-thiadiazol-2-yl)-4-(2,6-dimethoxyphenyl)-3-((1-hydroxy-3-methoxypropan-2-yl)oxy)-2-oxo-2H-pyran-6-carboxamide] has an IC50 [1] of 0.5 to 1 nM.

COCCOc1c(-c2ncccc2OC)cc(C(=O)Nc2nnc(-n3nccc3C)s2)oc1=O [Compound 4, 3-(2-methoxyethoxy)-4-(3-methoxypyridin-2-yl)-N-(5-(5-methyl-1H-pyrazol-1-yl)-1,3,4-thiadiazol-2-yl)-2-oxo-2H-pyran-6-carboxamide] showed an IC50 [1] of 5 to 20 nM.

COc1cccc(OC)c1-c1cc(C(=O)Nc2nnc(-n3nccc3N)s2)oc(=O)c1OCCN1CCO[C@@H](CSC)C1 [82B*, (R)-N-(5-(5-amino-1H-pyrazol-1-yl)-1,3,4-thiadiazol-2-yl)-4-(2,6-dimethoxyphenyl)-3-(2-(2-((methylthio)methyl)morpholino)ethoxy)-2-oxo-2H-pyran-6-carboxamide] gave an IC50 [1] of 0.5 to 1 nM.

In the case of COCCOc1c(-c2c(F)cccc2OC)cc(C(=O)Nc2nnc(-n3nccc3N)s2)oc1=O [Compound 13, N-(5-(5-amino-1H-pyrazol-1-yl)-1,3,4-thiadiazol-2-yl)-4-(2-fluoro-6-methoxyphenyl)-3-(2-methoxyethoxy)-2-oxo-2H-pyran-6-carboxamide], the IC50 [1] is reported as 0.5 to 1 nM.

Work on COCCOc1c(-c2c(C)cccc2C#N)cc(C(=O)Nc2nnc(-n3nccc3N)s2)oc1=O (single isomer, unassigned) [Compound 24B*, (Sa)-N-(5-(5-amino-1H-pyrazol-1-yl)-1,3,4-thiadiazol-2-yl)-4-(2-cyano-6-methylphenyl)-3-(2-methoxyethoxy)-2-oxo-2H-pyran-6-carboxamide] yielded an IC50 [1] of less than 0.5 nM.

COc1cccc(OC)c1-c1cc(C(=O)Nc2nnc(-n3nccc3N)s2)oc(=O)c1OCCN1CCCSCC1 [Compound 89, 3-(2-(1,4-thiazepan-4-yl)ethoxy)-N-(5-(5-amino-1H-pyrazol-1-yl)-1,3,4-thiadiazol-2-yl)-4-(2,6-dimethoxyphenyl)-2-oxo-2H-pyran-6-carboxamide] was tested, and the IC50 [1] was 0.5 to 1 nM.

For COc1c(-c2c(C#N)cnn2C)cc(C(=O)Nc2nnc(-n3nccc3C)s2)oc1=O [Compound 14, 4-(4-cyano-1-methyl-1H-pyrazol-5-yl)-3-methoxy-N-(5-(5-methyl-1H-pyrazol-1-yl)-1,3,4-thiadiazol-2-yl)-2-oxo-2H-pyran-6-carboxamide], the IC50 [1] was 20 to 60 nM.

COc1cccc(OC)c1-c1cc(C(=O)Nc2nnc(-n3nccc3N)s2)oc(=O)c1O[C@H]1CC[C@@H](O)CC1 [Compound 108B, N-(5-(5-amino-1H-pyrazol-1-yl)-1,3,4-thiadiazol-2-yl)-4-(2,6-dimethoxyphenyl)-3-(((1s,4s)-4-hydroxycyclohexyl)oxy)-2-oxo-2H-pyran-6-carboxamide] showed an IC50 [1] of 1 to 5 nM.

COc1c(-c2ccccc2S(C)(=O)=O)cc(C(=O)Nc2nnc(-n3nccc3C)s2)oc1=O [Compound 2, 3-methoxy-N-(5-(5-methyl-1H-pyrazol-1-yl)-1,3,4-thiadiazol-2-yl)-4-(2-(methylsulfonyl)phenyl)-2-oxo-2H-pyran-6-carboxamide] was tested, and the IC50 [1] was 5 to 20 nM.

COc1cccc(OC)c1-c1cc(C(=O)Nc2nnc(-n3nccc3N)s2)oc(=O)c1O[C@H]1CCOC1 [52A*, (S)-N-(5-(5-amino-1H-pyrazol-1-yl)-1,3,4-thiadiazol-2-yl)-4-(2,6-dimethoxyphenyl)-2-oxo-3-((tetrahydrofuran-3-yl)oxy)-2H-pyran-6-carboxamide] was tested, and the IC50 [1] was less than 0.5 nM.

Compound COCCOc1c(-c2c(C)cccc2OC)cc(C(=O)Nc2nnc(-n3nccc3N)s2)oc1=O [Compound 11, N-(5-(5-amino-1H-pyrazol-1-yl)-1,3,4-thiadiazol-2-yl)-4-(2-methoxy-6-methylphenyl)-3-(2-methoxyethoxy)-2-oxo-2H-pyran-6-carboxamide] has an IC50 [1] of 0.5 to 1 nM.
